The record followed here is patent US9422293B2 (priority 2006, dated 2016).

Where a name gives a salt, the structure may show the parent alone.

The target in the first assay is rat TRPV1 (Rattus norvegicus (Rat), UniProt O35433). Conditions: read-out: Rat IC50.
Chain of rat TRPV1 (O35433 whole entry): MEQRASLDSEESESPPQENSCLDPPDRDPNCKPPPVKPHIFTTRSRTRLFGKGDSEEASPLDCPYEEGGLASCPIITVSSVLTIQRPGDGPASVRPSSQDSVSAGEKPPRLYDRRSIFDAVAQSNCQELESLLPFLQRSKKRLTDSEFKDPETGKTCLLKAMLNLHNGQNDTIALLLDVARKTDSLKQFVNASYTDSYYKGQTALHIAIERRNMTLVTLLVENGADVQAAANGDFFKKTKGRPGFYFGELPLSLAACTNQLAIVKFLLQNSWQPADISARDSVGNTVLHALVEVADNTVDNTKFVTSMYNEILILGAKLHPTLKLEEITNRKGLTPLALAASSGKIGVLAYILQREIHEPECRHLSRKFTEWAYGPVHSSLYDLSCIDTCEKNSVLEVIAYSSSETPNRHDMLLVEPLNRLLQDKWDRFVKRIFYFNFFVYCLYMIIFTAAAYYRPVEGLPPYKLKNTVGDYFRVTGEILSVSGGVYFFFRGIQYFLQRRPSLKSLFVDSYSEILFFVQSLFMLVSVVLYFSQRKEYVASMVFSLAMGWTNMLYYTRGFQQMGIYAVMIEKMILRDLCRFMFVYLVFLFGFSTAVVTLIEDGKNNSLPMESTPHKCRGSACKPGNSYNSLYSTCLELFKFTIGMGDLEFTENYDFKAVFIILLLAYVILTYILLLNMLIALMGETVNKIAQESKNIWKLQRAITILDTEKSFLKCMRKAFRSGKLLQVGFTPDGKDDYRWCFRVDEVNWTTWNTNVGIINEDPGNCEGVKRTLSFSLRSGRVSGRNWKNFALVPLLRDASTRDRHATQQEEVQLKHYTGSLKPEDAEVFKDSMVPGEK
With `CC(C)c1nc2c(c(NCCc3ccc(F)cc3)n1)CCN(c1ncccc1C(F)(F)F)CC2` [Example 12, [2-(4-Fluoro-phenyl)-ethyl]-[2-isopropyl-7-(3-trifluoromethyl-pyridin-2-yl)-6,7,8,9-tetrahydro-5H-pyrimido[4,5-d]azepin-4-yl]-amine], the IC50 (as a rule, the midpoint of a concentration-inhibition curve) was 950 nM.

For `Cc1nc2c(c(Nc3ccc(C(C)(C)C)cc3)n1)CCN(c1ncccc1C(F)(F)F)CC2` [Example 15, (4-tert-Butyl-phenyl)-[2-methyl-7-(3-trifluoromethyl-pyridin-2-yl)-6,7,8,9-tetrahydro-5H-pyrimido[4,5-d]azepin-4-yl]-amine], the IC50 was determined as 46 nM.

`Cc1nc2c(c(Nc3ccc(C(F)(F)F)cc3)n1)CCN(c1ncccc1C(F)(F)F)CC2` [Example 16, [2-Methyl-7-(3-trifluoromethyl-pyridin-2-yl)-6,7,8,9-tetrahydro-5H-pyrimido-[4,5-d]azepin-4-yl]-(4-trifluoromethyl-phenyl)-amine]: the IC50 is 100 nM.

Consider `FC(F)(F)c1ccc(Nc2nc(C3CC3)nc3c2CCN(c2ncccc2C(F)(F)F)CC3)nc1` [Example 19, [2-Cyclopropyl-7-(3-trifluoromethyl-pyridin-2-yl)-6,7,8,9-tetrahydro-5H-pyrimido[4,5-d]azepin-4-yl]-(5-trifluoromethyl-pyridin-2-yl)-amine], for which the half-maximal inhibitory concentration (IC50) came to 510 nM.

As to `CC(C)c1nc2c(c(Nc3ccc(C(F)(F)F)cn3)n1)CCN(c1ncccc1C(F)(F)F)CC2` [Example 20, [2-Isopropyl-7-(3-trifluoromethyl-pyridin-2-yl)-6,7,8,9-tetrahydro-5H-pyrimido[4,5-d]azepin-4-yl]-(5-trifluoromethyl-pyridin-2-yl)-amine], the half-inhibitory concentration (IC50) came to 32 nM.

For `CC(C)c1nc2c(c(Nc3cnc4ccccc4c3)n1)CCN(c1ncccc1C(F)(F)F)CC2` [Example 21, [2-Isopropyl-7-(3-trifluoromethyl-pyridin-2-yl)-6,7,8,9-tetrahydro-5H-pyrimido[4,5-d]azepin-4-yl]-quinolin-3-yl-amine], the half-inhibitory concentration (IC50) was determined as 1100 nM.

With `FC(F)(F)c1ccc(Nc2nc(-c3ccccc3)nc3c2CCN(c2ncccc2C(F)(F)F)CC3)nc1` [Example 22, [2-Phenyl-7-(3-trifluoromethyl-pyridin-2-yl)-6,7,8,9-tetrahydro-5H-pyrimido[4,5-d]azepin-4-yl]-(5-trifluoromethyl-pyridin-2-yl)-amine], the half-inhibitory concentration (IC50) came out at 130 nM.

On to `CC(C)c1nc2c(c(Nc3ccc(C(F)(F)F)nc3)n1)CCN(c1ncccc1C(F)(F)F)CC2` [Example 23, [2-Isopropyl-7-(3-trifluoromethyl-pyridin-2-yl)-6,7,8,9-tetrahydro-5H-pyrimido[4,5-d]azepin-4-yl]-(6-trifluoromethyl-pyridin-3-yl)-amine], for which the half-maximal inhibitory concentration (IC50) was determined as 310 nM.

For `CC(C)c1nc2c(c(Nc3ccc(Oc4ccccc4)cc3)n1)CCN(c1ncccc1C(F)(F)F)CC2` [Example 25, [2-Isopropyl-7-(3-trifluoromethyl-pyridin-2-yl)-6,7,8,9-tetrahydro-5H-pyrimido[4,5-d]azepin-4-yl]-(4-phenoxy-phenyl)-amine], the IC50 amounted to 770 nM.

As to `FC(F)(F)c1ccc(Nc2ncnc3c2CCN(c2cnc4ccccc4n2)CC3)cc1` [Example 29, (7-Quinoxalin-2-yl-6,7,8,9-tetrahydro-5H-pyrimido[4,5-d]azepin-4-yl)-(4-trifluoromethyl-phenyl)-amine], the IC50 was determined as 340 nM.

Consider `FC(F)(F)c1ccc(Nc2ncnc3c2CCN(c2ncccc2Cl)CC3)cc1` [Example 30, [7-(3-Chloro-pyridin-2-yl)-6,7,8,9-tetrahydro-5H-pyrimido[4,5-d]azepin-4-yl]-(4-trifluoromethyl-phenyl)-amine], for which the IC50 amounted to 1300 nM.

The same assay, now with this note: read-out: Rat IC50; hydrochloride salt.
For `CC(C)c1nc2c(c(Nc3ccc(C(F)(F)F)cn3)n1)CCN(c1ncccc1C(F)(F)F)CC2` [Example 20A, [2-Isopropyl-7-(3-trifluoromethyl-pyridin-2-yl)-6,7,8,9-tetrahydro-5H-pyrimido[4,5-d]azepin-4-yl]-(5-trifluoromethyl-pyridin-2-yl)-amine hydrochloride salt], the IC50 was determined as 250 nM.
